# Data from patent US11851631B2, “Household product delivering cooling sensations” (TAKASAGO INTERNATIONAL CORPORATION, priority 2016, dated 2023).
# Columns and labels:
# human TRPM8 = target: T1, human TRPM8 (Homo sapiens, UniProt Q7Z2W7); assay: TRPM8 activation, Fluo-8 calcium fluorescence (FLIPR) in HEK-293 cells; type: cell-based; conditions: HEK-293 cells stably transfected with human TRPM8; for EC50: normalised to WS3 EC100
# T1 construct: expressed in transfected cells; host or cells: HEK-293
# Experimental: HEK-293 (Human Embryonic Kidney) cells stably transfected with human TRPM8 were grown in a culture medium of EMEM (minimum Essential Medium Eagle) with Earl's salts balanced salt solution (Lonza catalogue No BE12-125F), 5 mL of 200 mM Ultraglutamine 1 (Lonza Catalogue No BE17-605E/U1), 5 mL of 100× Penicillin/Streptomycin (Lonza Catalogue No DE17-602E) 50 mL of Fetal bovine serum (Euroclone Cat No ECS0180L) 2 mL of 100 mg/mL Genticin sulphate (G418 sulphate InvivoGen CatAnt-gn-5).
# 10,000 cells/well were seeded in a 384 MTP in complete medium. Then after 24 h the culture medium was manually removed. The cells were loaded with 20 μL/well of 0.5× Fluo-8 NW dye in standard Tyrode's buffer (Screen Quest™ Fluo-8 No wash Calcium assay kit supplied by AAT Bioquest catalogue No 26316) The plate was incubated for 1 h at room temperature in the dark. 10 μL/well of test compounds and controls were injected with the FLIPR^TETRA (Molecular Devices) and the emitted fluorescence signal was recorded at 520 nm for 3 min. The compound multiwall plate contained the samples at 8 different doses in quadruplicate data points. The dose response of the samples were performed starting from 100 mM concentration in 100% DMSO with a serial dilution of 1:2 and then diluted in assay buffer at the final concentration of 100 μM, 50 μM, 25 μM, 12.5 μM, 6 μM, 3 μM, 1.5 μM, and 0.7 μM.
# In the compound plate was also present a dose response of the reference agonist N ethyl-p-menthane-3-carboxamide (WS3) at 8 concentrations and in duplicate. This reference control dosed as 16 wells (duplicates for each concentration) of reference agonist at EC100 correspond to the MAX signal response (100% activity). There were also 16 wells of blanks i.e. assay buffer without either a test sample or reference agonist which correspond to the MIN signal response (0% activity). MAX and MIN controls are used for data analysis (RZ′ calculation) and normalization of compound activity.
# For data analysis the response value is calculated as the maximum signal of the kinetic trace after the injection minus the median of the points before injection and multiplied by the normalization factor (NF). The normalisation factor is the baseline mean of all wells in the plate divided by the baseline of a specific well. […]
# The EC50 of the test samples was then calculated using a curve fitting program available within the data analysis software.
# panel of 84 subjects = assay: Comparison of sensations between isopulegol and menthoxypropanediol (cool sensation in the nose); type: in vivo, human; conditions: 3% in triethyl citrate, isopulegol compared to menthoxypropanediol, ANOVA p<0.05
# Experimental: A panel of 84 subjects was selected to take part in a comparative test between isopulegol (available as Coolact (registered trademark) P) and menthoxypropanediol (CAS 87061-04-9, available as Coolact (registered trademark) 10), both known for their cooling effect on skin.
# The samples of isopulegol and menthoxypropanediol were prepared by dilution to 3% in Triethyl Citrate (TEC).
# Panelists also had to score whether they perceived a cool sensation in the nose, on a scale of +100 (very cool) to −100 (very hot) with 0 (neutral) on the middle of the scale.
# T1 sequence (Q7Z2W7 whole entry): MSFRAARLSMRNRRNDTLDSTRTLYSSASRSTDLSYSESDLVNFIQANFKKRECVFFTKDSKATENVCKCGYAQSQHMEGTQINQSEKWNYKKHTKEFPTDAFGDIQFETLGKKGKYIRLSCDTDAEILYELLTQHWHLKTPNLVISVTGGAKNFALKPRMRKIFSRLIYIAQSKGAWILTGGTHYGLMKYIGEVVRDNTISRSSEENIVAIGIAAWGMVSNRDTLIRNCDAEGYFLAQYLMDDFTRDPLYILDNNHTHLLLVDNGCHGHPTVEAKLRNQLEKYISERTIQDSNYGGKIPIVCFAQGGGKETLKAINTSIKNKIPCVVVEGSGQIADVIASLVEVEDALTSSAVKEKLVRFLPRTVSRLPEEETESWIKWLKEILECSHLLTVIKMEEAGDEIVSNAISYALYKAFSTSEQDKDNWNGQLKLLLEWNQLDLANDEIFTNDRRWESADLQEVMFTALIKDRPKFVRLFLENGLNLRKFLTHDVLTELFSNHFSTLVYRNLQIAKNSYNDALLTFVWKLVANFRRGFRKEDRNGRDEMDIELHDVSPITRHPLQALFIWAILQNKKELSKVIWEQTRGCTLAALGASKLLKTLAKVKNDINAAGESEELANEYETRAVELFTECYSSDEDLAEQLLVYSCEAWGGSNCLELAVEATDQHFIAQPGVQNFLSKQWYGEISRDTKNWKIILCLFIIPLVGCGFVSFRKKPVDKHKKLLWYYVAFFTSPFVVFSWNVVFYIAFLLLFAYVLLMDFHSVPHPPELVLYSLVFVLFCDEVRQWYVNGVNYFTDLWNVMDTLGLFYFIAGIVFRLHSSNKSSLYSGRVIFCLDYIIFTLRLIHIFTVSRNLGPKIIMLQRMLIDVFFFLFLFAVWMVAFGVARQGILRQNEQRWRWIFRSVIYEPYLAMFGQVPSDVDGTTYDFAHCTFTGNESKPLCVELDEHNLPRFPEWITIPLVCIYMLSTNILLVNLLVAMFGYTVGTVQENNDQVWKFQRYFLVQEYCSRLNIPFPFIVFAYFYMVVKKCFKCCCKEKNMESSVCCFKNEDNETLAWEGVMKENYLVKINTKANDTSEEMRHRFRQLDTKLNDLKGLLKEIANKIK
Compound,TRPM8 activation (in words) (human TRPM8),cooling perception in the nose (in words) (panel of 84 subjects),EC50 (human TRPM8) [µM]
"C=C(C)[C@@H]1CC[C@@H](C)C[C@H]1O (racemic) [Isopulegol, isopulegol]",activate TRPM8,improved cooling perception,
"CC(C)[C@@H]1CC[C@@H](C)C[C@H]1OCC(O)CO (some centres unmarked) [Menthoxypropanediol, menthoxypropanediol]",activate TRPM8,,7.7
"CCNC(=O)C1CC(C)CCC1C(C)C (centres unmarked) [WS3, N ethyl-p-menthane-3-carboxamide]",,,6
